The record followed here is ChEMBL document CHEMBL4476867, “Hydroxy formamide derivatives and their use” (2016).

The target of test [1] is T1, Bone morphogenetic protein 1 (Homo sapiens, UniProt P13497).
T1 sequence (P13497 whole entry): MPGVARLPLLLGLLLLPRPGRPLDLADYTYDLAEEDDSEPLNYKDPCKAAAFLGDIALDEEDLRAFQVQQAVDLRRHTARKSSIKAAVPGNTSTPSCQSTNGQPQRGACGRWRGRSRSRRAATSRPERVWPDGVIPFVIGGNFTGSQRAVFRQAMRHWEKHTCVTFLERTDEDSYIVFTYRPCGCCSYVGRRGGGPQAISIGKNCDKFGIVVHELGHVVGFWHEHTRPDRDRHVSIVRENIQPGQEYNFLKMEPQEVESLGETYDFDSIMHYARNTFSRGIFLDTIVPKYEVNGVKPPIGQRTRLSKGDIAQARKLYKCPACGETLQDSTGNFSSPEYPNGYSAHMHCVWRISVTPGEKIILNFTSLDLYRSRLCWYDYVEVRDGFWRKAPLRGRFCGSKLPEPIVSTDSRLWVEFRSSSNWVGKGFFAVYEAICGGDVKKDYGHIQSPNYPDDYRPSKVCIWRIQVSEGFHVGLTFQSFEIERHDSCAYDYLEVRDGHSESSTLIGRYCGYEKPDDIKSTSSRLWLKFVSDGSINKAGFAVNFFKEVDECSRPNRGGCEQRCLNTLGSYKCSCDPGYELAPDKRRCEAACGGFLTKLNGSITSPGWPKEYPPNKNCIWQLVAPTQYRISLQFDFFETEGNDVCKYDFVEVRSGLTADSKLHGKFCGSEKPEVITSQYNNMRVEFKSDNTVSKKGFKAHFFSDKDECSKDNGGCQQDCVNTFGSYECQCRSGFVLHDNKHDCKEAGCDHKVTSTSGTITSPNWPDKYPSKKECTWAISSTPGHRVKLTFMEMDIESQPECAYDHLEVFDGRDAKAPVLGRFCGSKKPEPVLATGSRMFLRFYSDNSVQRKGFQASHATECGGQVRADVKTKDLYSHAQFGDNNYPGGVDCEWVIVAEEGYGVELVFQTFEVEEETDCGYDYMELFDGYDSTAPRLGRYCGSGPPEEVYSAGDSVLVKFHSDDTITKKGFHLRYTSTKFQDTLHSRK
Description: Inhibition of C-terminal FLAG-6x-His epitope tagged and N-terminal human RAGE signal sequence tagged human BMP1 (23 to 721 amino acids) expressed in CHO-E1 cells pre-incubated for 10 mins before promyostatin peptide substrate addition and measured after 30 mins using 50 nM BMP1 by FRET based assay. In kind it is cell-based.

The target in another test is Tolloid-like protein 1 (Homo sapiens, UniProt O43897, I156V/N221S/V284A). Nature of the test: Inhibition of recombinant human TLL1 I156V/N221S/V284A mutant expressed in CHOE1A cells pre-incubated for 10 mins before promyostatin peptide substrate addition and measured after 60 mins by FRET based assay. In kind it is cell-based.
The nature of test [2]: Reduction in mature collagen deposition levels in human cardiac fibroblasts incubated for 24 to 48 hrs by immunostaining based assay. In kind it is functional. The gist of the method:
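Methanol fixation at −20° C for 10 min followed a 24 to 48 hr treatment at 37° C of human cardiac fibroblasts in 96-well plates, in ficoll crowding EMEM with 100 μM ascorbic acid and DMSO under 0.3%. Imaging on an Operetta system captured anti-mature collagen I staining, detected with an Alexa647 secondary antibody, alongside Hoechst-stained nuclei. In GraphPad Prism, an IC50 was fitted to collagen intensity normalised to nuclei count per field.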

The nature of test [3]: Reduction in PICP levels in human cardiac fibroblasts incubated for 24 to 48 hrs by ELISA. Format: functional. The essentials:
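Human cardiac fibroblasts no older than passage 6 were seeded at 10,000 to 15,000 cells per well in 96-well plates and, one day later, exposed for 24 to 48 hr at 37° C to treatment in ficoll crowding EMEM with 100 μM ascorbic acid and less than 0.3% DMSO. IC50 was determined in GraphPad Prism from a log(inhibitor)-response fit of procollagen I C-terminal propeptide levels in the medium, measured by Quidel ELISA and expressed relative to untreated controls.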

For another test, the target named is T2, Tolloid-like protein 2 (Homo sapiens, UniProt Q9Y6L7).
T2 sequence (Q9Y6L7 whole entry): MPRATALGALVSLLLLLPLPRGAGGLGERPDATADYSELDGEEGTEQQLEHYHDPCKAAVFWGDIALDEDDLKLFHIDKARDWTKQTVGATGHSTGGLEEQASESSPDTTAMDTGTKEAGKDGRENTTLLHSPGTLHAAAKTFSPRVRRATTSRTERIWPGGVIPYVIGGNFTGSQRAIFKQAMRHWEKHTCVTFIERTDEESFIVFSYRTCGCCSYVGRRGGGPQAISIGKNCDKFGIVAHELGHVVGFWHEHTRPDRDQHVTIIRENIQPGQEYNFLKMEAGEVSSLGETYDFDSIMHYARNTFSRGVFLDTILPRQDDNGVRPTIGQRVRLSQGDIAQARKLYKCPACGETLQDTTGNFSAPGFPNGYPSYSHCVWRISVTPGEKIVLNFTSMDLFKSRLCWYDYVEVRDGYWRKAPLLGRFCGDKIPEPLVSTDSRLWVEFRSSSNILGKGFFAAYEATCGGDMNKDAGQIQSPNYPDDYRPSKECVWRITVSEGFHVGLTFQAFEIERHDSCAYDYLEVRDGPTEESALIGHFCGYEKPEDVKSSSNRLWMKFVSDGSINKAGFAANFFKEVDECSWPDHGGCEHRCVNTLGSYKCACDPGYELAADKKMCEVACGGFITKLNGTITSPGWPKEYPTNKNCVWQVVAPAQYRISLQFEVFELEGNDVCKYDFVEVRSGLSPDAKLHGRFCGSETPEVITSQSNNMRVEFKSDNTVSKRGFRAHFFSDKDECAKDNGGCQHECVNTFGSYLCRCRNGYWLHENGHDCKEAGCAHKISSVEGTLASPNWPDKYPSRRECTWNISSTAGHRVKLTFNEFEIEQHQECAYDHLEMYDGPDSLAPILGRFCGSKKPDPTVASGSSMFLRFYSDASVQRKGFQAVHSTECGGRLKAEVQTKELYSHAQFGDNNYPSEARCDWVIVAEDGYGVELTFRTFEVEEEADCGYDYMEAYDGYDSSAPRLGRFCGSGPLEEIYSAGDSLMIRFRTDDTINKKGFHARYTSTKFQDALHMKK
Nature of the test: Inhibition of C-terminal Avi-6x-His epitope tagged and N-terminal human RAGE signal sequence tagged recombinant human TLL2 (26 to 1015 amino acids) expressed in CHOE1A cells incubated for 60 mins with promyostatin peptide substrate by FRET based assay. In kind it is cell-based.

The target of test [4] is T1, Bone morphogenetic protein 1. Description: Inhibition of C-terminal FLAG-6x-His epitope tagged and N-terminal human RAGE signal sequence tagged human BMP1 (23 to 721 amino acids) expressed in CHO-E1 cells pre-incubated for 10 mins before promyostatin peptide substrate addition and measured after 60 mins using 0.5 nM BMP1 by FRET based assay. Format: cell-based.

Molecules are shown by their SMILES.

Chain of Tolloid-like protein 1 (O43897 148-1013 I156V/N221S/V284A limits assumed): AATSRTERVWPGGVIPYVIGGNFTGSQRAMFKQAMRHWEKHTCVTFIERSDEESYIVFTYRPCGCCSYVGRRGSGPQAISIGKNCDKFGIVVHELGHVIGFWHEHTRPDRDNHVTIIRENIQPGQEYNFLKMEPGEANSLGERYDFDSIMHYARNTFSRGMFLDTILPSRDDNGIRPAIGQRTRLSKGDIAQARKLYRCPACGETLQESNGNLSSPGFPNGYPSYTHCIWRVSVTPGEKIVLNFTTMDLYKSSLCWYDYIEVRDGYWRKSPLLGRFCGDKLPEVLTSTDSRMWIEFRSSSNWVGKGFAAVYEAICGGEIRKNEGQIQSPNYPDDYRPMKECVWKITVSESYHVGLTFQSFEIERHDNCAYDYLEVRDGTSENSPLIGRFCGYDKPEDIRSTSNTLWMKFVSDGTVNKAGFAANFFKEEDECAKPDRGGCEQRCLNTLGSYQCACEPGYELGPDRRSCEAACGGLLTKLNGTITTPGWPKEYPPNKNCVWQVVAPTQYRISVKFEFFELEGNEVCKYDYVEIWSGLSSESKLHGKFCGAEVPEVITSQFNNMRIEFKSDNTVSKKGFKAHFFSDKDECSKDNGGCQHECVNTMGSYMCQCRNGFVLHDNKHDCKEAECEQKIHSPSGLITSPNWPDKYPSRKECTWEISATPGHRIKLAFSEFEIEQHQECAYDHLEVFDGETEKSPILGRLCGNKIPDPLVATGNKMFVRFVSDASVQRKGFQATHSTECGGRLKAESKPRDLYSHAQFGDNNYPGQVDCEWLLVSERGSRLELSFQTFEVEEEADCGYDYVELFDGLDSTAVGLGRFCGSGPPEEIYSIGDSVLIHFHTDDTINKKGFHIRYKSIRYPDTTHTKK

Regarding `CCCCC[C@@H](C(=O)NCNC(=O)c1ccc(-c2cc(OCC)cc(C(=O)O)c2)o1)[C@@H](CC)N(O)C=O`, the IC50 is below 200 nM in test [1]; below 398 nM at Tolloid-like protein 1; below 1000 nM in test [2]; below 3980 nM in test [3]; below 794 nM at Tolloid-like protein 2; below 126 nM in test [4].
Turning to `CCCCC[C@@H](C(=O)NCNC(=O)c1ccc(-c2cc(OCC)c(F)c(C(=O)O)c2)o1)[C@@H](CC)N(O)C=O`, the IC50 is below 200 nM in test [1]; below 398 nM on Tolloid-like protein 1; below 1000 nM in test [2]; below 3980 nM in test [3]; below 794 nM at Tolloid-like protein 2; below 126 nM in test [4].
Turning to `CCOc1cc(-c2ccc(C(=O)NCNC(=O)[C@H](CCc3ccc(F)cc3F)[C@@H](CC)N(O)C=O)o2)ccc1C(=O)N[C@@H](CC(=O)O)C(=O)O`, the IC50 is below 200 nM in test [1]; below 398 nM on Tolloid-like protein 1; below 1000 nM in test [2]; below 3980 nM in test [3]; below 794 nM at Tolloid-like protein 2; below 126 nM in test [4].
